For assay [1], the target named is T1, α1β3 GABAAR (UniProt P28472+P62813).
T1 construct: expressed in transfected cells; host or cells: Xenopus laevis oocytes injected with cRNA (α1:β3 5:1)
Nature of the assay: Two-electrode voltage clamp in Xenopus laevis oocytes, WT receptor. The format is cell-based. The note with it: for Potentiation of GABA-elicited currents: 0.3 μM GABA, 10 μM neurosteroid, oocytes; for % of desensitization (reduction of steady-state current): 1 mM GABA, 3β5αP 3 μM, KK148 10 μM, KK150 10 μM, WT. The procedure: (§1) The wild-type and mutant α1β3 GABAAR were expressed in oocytes from the African clawed frog (Xenopus laevis). Frogs were purchased from Xenopus 1 (Dexter, MI), and housed and cared for in a Washington University Animal Care Facility under the supervision of the Washington University Division of Comparative Medicine. Harvesting of oocytes was conducted under the Guide for the Care and Use of Laboratory Animals as adopted and promulgated by the National Institutes of Health. The animal protocol (No. 20180191) was approved by the Animal Studies Committee of Washington University in St. Louis. The oocytes were injected with a total of 12 ng cRNA. The ratio of cRNAs was 5:1 ratio (α1:β3) to minimize the expression of β3 homomeric receptors. Following injection, the oocytes were incubated in ND96 (96 mM NaCl, 2 mM KCl, 1.8 mM CaCl2, 1 mM MgCl2, 5 mM HEPES; pH 7.4) with supplements (2.5 mM Na pyruvate, 100 U/ml penicillin, 100 μg/ml streptomycin and 50 μg/ml gentamycin) at 16°C for 2 days prior to conducting electrophysiological recordings. The electrophysiological recordings were conducted at room temperature using standard two-electrode voltage clamp. The oocytes were clamped at −60 mV. The chamber (RC-1Z, Warner Instruments, Hamden, CT) was perfused with ND96 at 5–8 ml/min. Solutions were gravity-applied from 30 ml glass syringes with glass luer slips via Teflon tubing. The current responses were amplified with an OC-725C amplifier (Warner Instruments, Hamden, CT), digitized with a Digidata 1200 series digitizer (Molecular Devices), and stored using pClamp (Molecular Devices). Current traces were analyzed with Clampfit (Molecular Devices). […] The stock solution of muscimol was made at 20 mM in ND96 and stored at 4°C. The steroids were dissolved in DMSO at 10–20 mM and stored at room temperature.
The converted current traces were analyzed in the framework of the three-state Resting-Open-Desensitized activation model ([Germann et al., 2019a]; [Germann et al., 2019b]). The model enables analysis and prediction of peak responses using four parameters that characterize the extent of constitutive activity (termed L; L = Resting/Open), affinity of the resting receptor to agonist (KC), affinity of the open receptor to agonist (KO), and the number of agonist binding sites (N). Analysis and prediction of steady-state responses requires an additional parameter, termed Q, that describes the equilibrium between open and desensitized receptors (Q = Open/Desensitized).
The Popen of the peak response is expressed as: Popen,peak=1/1+LΓ and the Popen of the steady-state response as: Popen,steady−state=1/1+1/Q+LΓ where Γ=[(1+[X]/KC)/(1+[X]/KO)]^N
[X]is the concentration of agonist present, and other terms are as described above. In practice, the value of LΓ was calculated using the experimentally determined Popen of the peak response, and then used as a fixed value in estimating Q from Popen,steady-state.
The Pdesensitized was calculated using: Pdesensitized=1/1+Q+QLΓ
Calculated probabilities (e.g. Popen, Pdesentitized) are reported as mean ± SD.

The target in assay [2] is α1(Q242L)β3 GABAAR (UniProt P28472+P62813, Q268L). Kind of assay: Two-electrode voltage clamp in Xenopus laevis oocytes, Q242L mutant. The format is cell-based. Further details: expressed in transfected cells; host or cells: Xenopus laevis oocytes injected with cRNA. Here is the method:
The wild-type and mutant α1β3 GABAAR were expressed in oocytes from the African clawed frog (Xenopus laevis). Frogs were purchased from Xenopus 1 (Dexter, MI), and housed and cared for in a Washington University Animal Care Facility under the supervision of the Washington University Division of Comparative Medicine. Harvesting of oocytes was conducted under the Guide for the Care and Use of Laboratory Animals as adopted and promulgated by the National Institutes of Health. The animal protocol (No. 20180191) was approved by the Animal Studies Committee of Washington University in St. Louis. The oocytes were injected with a total of 12 ng cRNA. The ratio of cRNAs was 5:1 ratio (α1:β3) to minimize the expression of β3 homomeric receptors. Following injection, the oocytes were incubated in ND96 (96 mM NaCl, 2 mM KCl, 1.8 mM CaCl2, 1 mM MgCl2, 5 mM HEPES; pH 7.4) with supplements (2.5 mM Na pyruvate, 100 U/ml penicillin, 100 μg/ml streptomycin and 50 μg/ml gentamycin) at 16°C for 2 days prior to conducting electrophysiological recordings. The electrophysiological recordings were conducted at room temperature using standard two-electrode voltage clamp. The oocytes were clamped at −60 mV. The chamber (RC-1Z, Warner Instruments, Hamden, CT) was perfused with ND96 at 5–8 ml/min. […] Current traces were analyzed with Clampfit (Molecular Devices). […]

Assay [3] addresses α1(V256S)β3 GABAAR (UniProt P28472+P62813, V283S). Nature of the assay: Two-electrode voltage clamp in Xenopus laevis oocytes, V256S mutant. The format is cell-based. Further details: expressed in transfected cells; host or cells: Xenopus laevis oocytes injected with cRNA. The following applies: for % of desensitization (reduction of steady-state current): 1 mM GABA. Here is the method:
as §1

For assay [4], the target named is T2, α1(V227W)β3 GABAAR (UniProt P28472+P62813, V253W).
T2 construct: expressed in transfected cells; host or cells: HEK293S GnTI- (ATCC CRL-3022), transient
T2 sequence (P62813 28-455 V253W): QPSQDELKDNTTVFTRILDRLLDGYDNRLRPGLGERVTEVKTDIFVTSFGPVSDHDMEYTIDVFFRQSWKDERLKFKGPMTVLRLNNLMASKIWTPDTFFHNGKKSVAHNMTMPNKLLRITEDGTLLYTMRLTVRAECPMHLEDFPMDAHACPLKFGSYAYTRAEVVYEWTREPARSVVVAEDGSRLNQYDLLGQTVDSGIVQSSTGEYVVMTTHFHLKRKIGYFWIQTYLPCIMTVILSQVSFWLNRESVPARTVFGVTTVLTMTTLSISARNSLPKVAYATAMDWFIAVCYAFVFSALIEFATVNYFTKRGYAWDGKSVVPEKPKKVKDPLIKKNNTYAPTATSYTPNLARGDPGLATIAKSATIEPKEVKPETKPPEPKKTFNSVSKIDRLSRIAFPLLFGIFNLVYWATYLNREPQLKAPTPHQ
T2 sequence (P28472 26-473): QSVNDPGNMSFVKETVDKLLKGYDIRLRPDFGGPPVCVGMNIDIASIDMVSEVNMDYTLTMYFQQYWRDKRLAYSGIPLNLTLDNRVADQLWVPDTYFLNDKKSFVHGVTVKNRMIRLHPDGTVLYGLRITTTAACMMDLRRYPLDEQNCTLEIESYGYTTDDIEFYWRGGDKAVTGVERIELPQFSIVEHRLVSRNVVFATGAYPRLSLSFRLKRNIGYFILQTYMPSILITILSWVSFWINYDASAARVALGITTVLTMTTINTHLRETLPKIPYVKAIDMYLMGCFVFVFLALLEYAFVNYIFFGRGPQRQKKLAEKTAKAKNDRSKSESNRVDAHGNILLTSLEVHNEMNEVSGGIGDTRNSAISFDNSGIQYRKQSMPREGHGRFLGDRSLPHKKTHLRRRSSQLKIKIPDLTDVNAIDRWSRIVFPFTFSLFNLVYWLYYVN
Nature of the assay: [3H]muscimol binding to HEK cell membranes, α1 intrasubunit site mutant V227W. Further details: species or system rat α1, human β3. The procedure:
The human α1 and β3 GABAAR subunits were subcloned into pcDNA3 for molecular manipulations and cRNA synthesis. Using QuikChange Site-Directed Mutagenesis Kit (Agilent Technologies, Santa Clara, CA), a FLAG tag was first added to the α1 subunit then an 8xHis tag was added to generate the following His-FLAG tag tandem ([…]), inserted between the fourth and fifth residues of the mature peptide. The α1 and β3 subunits were then transferred into the pcDNA4/TO and pcDNA5/TO vectors (Thermo Fisher Scientific), respectively, for tetracycline inducible expression. Transient expression was done using the GABAAR subunits rat α1FLAG ([Ueno et al., 1996]) and human β3 obtained from Geoffrey White (Neurogen, Branford, CT), each were subcloned into pcDNA3 for molecular manipulations and cRNA synthesis. Point mutations were generated using the QuikChange Site-Directed Mutagenesis Kit (Agilent) and the coding region was fully sequenced prior to use. The cDNAs were linearized with XbaI (NEB Labs, Ipswich, MA), and the cRNAs were generated using T7 mMessage mMachine (Ambion, Austin, TX).
[^3H]muscimol-binding assays were performed using a previously described method ([Chen et al., 2019]). […] Assay tubes were incubated for 1 hr on ice in the dark. […] Membranes were collected on Whatman/GF-C glass filter papers using a Brandel cell harvester (Gaithersburg, MD). To perform [^3H]muscimol binding isotherms, 100 μg/ml aliquots of membrane protein were incubated with 0.3 nM–1 μM [^3H]muscimol for 1 hr on ice in the dark. The specific activity for [^3H]muscimol concentrations from 30 nM to 1 μM was reduced to 2 Ci/mmol by dilution with nonradioactive muscimol. The membranes were collected on Whatman/GF-B glass filter papers using a vacuum manifold. […] For [^3H]muscimol-binding experiments examining competitive interactions between neurosteroids, the combined neurosteroids (0.3 μM 3α5αP or 3 μM KK148 ±30 μM KK150) or the same volume of dimethyl sulfoxide (DMSO) were added to the membranes which were then incubated with 3 nM [^3H]muscimol on ice for 1 hr. Time courses of neurosteroid [^3H]muscimol binding enhancement were examined by adding 10 µM of neurosteroids (3α5αP, 3β5αP) to membranes that had been fully equilibrated with 3 nM [^3H]muscimol for 1 hr on ice; binding was then measured as a function of time at 1, 3, 10, 30, 60 min. The membranes were collected on Whatman/GF-B glass filter papers using a vacuum manifold. Radioactivity bound to the filters was measured by liquid scintillation spectrometry using Bio-Safe II (Research Products International, Mount Prospect, IL).

Several values for one entry are separate records, joined by “and”; a condition that tells them apart may be missing. Identical values can stand only once.

We go through 5 compounds from paper PMC7532004, “Site-specific effects of neurosteroids on GABAA receptor activation and desensitization” (eLife, 2020).

T1 sequence (P62813 28-455): as the sequence (P62813 28-455 V253W) above, with W226V counted along it
T1 sequence (P28472 26-473): as the sequence (P28472 26-473) above
α1(V256S)β3 GABAAR, sequence (P62813 28-455 V283S): as the sequence (P62813 28-455 V253W) above, with W226V, V256S counted along it
α1(V256S)β3 GABAAR, sequence (P28472 26-473, stated change not applied): as the sequence (P28472 26-473) above
α1(Q242L)β3 GABAAR, sequence (P62813 28-455 Q268L): as the sequence (P62813 28-455 V253W) above, with W226V, Q241L counted along it
α1(Q242L)β3 GABAAR, sequence (P28472 26-473): as the sequence (P28472 26-473) above

Regarding `CC(=O)[C@H]1CC[C@H]2[C@@H]3CC[C@H]4C[C@H](O)CC[C@]4(C)[C@H]3CC[C@]12C` [3α5αP, allopregnanolone], in assay [1], the “Potentiation of GABA-elicited currents” value is listed as “potentiation”. Moreover, the “Effect on steady-state current” value in assay [2] (3 μM 3α5αP, 1 mM GABA + 40 μM pentobarbital, α1(Q242L)β3) is recorded as “small reduction”. Besides, the “Inhibitory effect on steady-state current in the V256S mutant” value in assay [3] (3 μM 3α5αP, 1 mM GABA + 40 μM pentobarbital) was “eliminated”.
As for `CC(=O)[C@H]1CC[C@H]2[C@@H]3CC[C@H]4C[C@@H](O)CC[C@]4(C)[C@H]3CC[C@]12C` [3β5αP, epi-allopregnanolone], in assay [1] (20 nM muscimol + 3 µM 3β5αP), the “Calculated steady-state Pdesensitized” value is 0.2168 and the “Steady-state Popen” value was 0.009 ± 0.004. In addition, in assay [1], the “Potentiation of GABA-elicited currents” value was “absence of potentiation”; the “% of desensitization (reduction of steady-state current)” value is ~ 25% and 23.0 ± 2.8%. In assay [1] (1 mM GABA + 3 µM 3β5αP), the “Popen of the steady-state response” value amounted to 0.077 ± 0.013 and the “Sum of (Popen + Pdesensitized)” value worked out at 0.97. Further, the “Steady-state Pdesensitized” value in assay [1] (1 mM GABA + 3 µM 3β5αP, Resting-Open-Desensitized model) was 0.892. Besides, the “Effect on peak current amplitude” value in assay [1] (co-application of 3 µM 3β5αP with 1 mM GABA) was “does not reduce”. Besides, the “Effect on decay rate of GABA-elicited currents” value in assay [1] (prolonged co-application of 1 mM GABA + 3 µM 3β5αP) is on record as “increases”. The “Effect of mutation on 3β5αP-enhanced desensitization” value in assay [2] (3 μM 3β5αP, 1 mM GABA, α1(Q242L)β3 vs WT) is listed as “without effect”. Moreover, the “% of desensitization (reduction of steady-state current)” value in assay [3] is “completely eliminated”.
For the compound `C#CCCO[C@H]1CC[C@H]2[C@@H]3CC[C@H]4CC5(CC[C@]4(C)[C@H]3CC[C@]12C)N=N5` [KK148], in assay [1], the “Potentiation of GABA-elicited currents” value is “absence of potentiation” and the “% of desensitization (reduction of steady-state current)” value worked out at 27.2 ± 6.0%. For the same compound, the “Hill slope for modulation of [3H]muscimol binding” value in assay [4] (3 nM [3H]muscimol) was determined as 0.76 ± 0.31. Further, in assay [4] (3 nM [3H]muscimol, 100% means no effect), the “Emax (% of control) of [3H]muscimol binding” value is recorded as “**209.2 ± 7.4 % of control”. Further, the concentration for a half-maximal effect (EC50) in assay [4] (3 nM [3H]muscimol, read-out: EC50 for modulation of [3H]muscimol binding) was determined as 1730 ± 680 nM. The “% of desensitization (reduction of steady-state current)” value in assay [3] turned out to be 0%.
For the compound `C#CCCO[C@@H]1CC[C@H]2[C@@H]3CC[C@H]4CC5(CC[C@]4(C)[C@H]3CC[C@]12C)N=N5` [KK150], in assay [1], the “Potentiation of GABA-elicited currents” value is “absence of potentiation” and the “% of desensitization (reduction of steady-state current)” value is given as 2.1 ± 0.7%.
As for `NCc1cc(=O)[nH]o1` [muscimol], in assay [1] (20 nM muscimol), the “Peak Popen” value stood at 0.012 ± 0.004. In addition, in assay [1] (20 nM muscimol alone), the “Calculated steady-state Pdesensitized” value is 0.1001 and the “Steady-state Popen” value was found to be 0.011 ± 0.004. Further, in assay [4], the “Bmax of [3H]muscimol binding isotherm” value is on record as 11.6 ± 0.4 (P > 0.99 vs. WT) pmol/mg. The Kd in assay [4] (read-out: Kd of [3H]muscimol binding isotherm) is 54.1 ± 5.8 nM.
